Data taken from patent US20200123208A1, “PEPTIDES AND NEMATICIDAL COMPOSITIONS” (priority 2017, published 2020).

How the values were obtained:
Type in all cases: in vivo
[1] = test system: Meloidogyne incognita J2s; test: Serotonin-induced stylet thrusting assay, M. incognita J2s; conditions: 100 μM uNLP, 24 h, 5 mM serotonin
Description: (§1) Predicted uNLPs from both M. incognita and G. pallida were synthesised by EZBiolab and dissolved into pH adjusted ddH2O to make a 5 mM stock which was aliquoted and stored at −20° C. J2s of both M. incognita and G. pallida were incubated for 24 hours in 200 μl of each peptide in a 24 well plate (SPL Lifesciences, South Korea) at a defined concentration.
(§2) Stylet thrusting assays where performed by incubating 100 M. incognita or G. pallida J2s for 15 minute in 5 mM or 2 mM serotonin (Sigma Aldrich, USA), respectively. J2s were placed on a glass slide and stylet thrusts were counted for randomly selected J2s, for 1 minute each. Counting took place for a maximum of 15 minutes. Longer incubations yielded inconsistent results. At least 30 J2s were counted for each neuropeptide treatment.

[2] = test system: Meloidogyne incognita J2s; test: Tomato invasion assay, M. incognita J2s; conditions: 100 μM uNLP, 24 h, tomato seedlings, normalised to negative control
Description: as §1
(§3) Tomato seeds were sterilised with 2.5% NaOCl for 15 minutes, washed 5 times in ddH2O and germinated on 0.5% Murashige and Skoog plates at 23° C. […] Invasion assays were performed by mixing 500 pre-treated M. incognita or G. pallida J2s with agar slurry and a single tomato seedling (2 days post germination) in a 6 well plate. Assays were left at 23° C. for 24 hours in the case of M. incognita and at 18° C. for 24 hours in the case of G. pallida under a 16 hour light and 8 hour darkness cycle. Seedlings were stained using acid fuschin [69] and the number of nematodes within the roots counted.

[3] = test system: Globodera pallida infective stage juveniles (J2s); test: Chemosensory (chemotaxis) assay towards root exudate, G. pallida J2s; conditions: 100 μM uNLP, 24 h, mean+/-SEM
Description: as §1
(§4) A 60 mm Petri dish was divided into two segments, a positive and a negative side, with a 0.5 cm ‘dead zone’ either side of the centre point. The petri dish was filled with 15 ml of 0.25% w/v agar which was allowed to solidify. 3 ml of 0.25% w/v agar slurry in spring water (pH 7, agitated with a magnetic stirrer for several hours to give a smooth consistency) was added to the petri dish and spread evenly over the surface. Root diffusate (attractant) and water only (control) 0.25% agar plugs were embedded in the agar slurry, either side of the assay arena. Root diffusate was collected from 10 tomato plants, aged 3-6 weeks in 1 litre pots, by pouring 500 ml of ddH2O through the soil three times. Diffusate from each plant was combined, filter sterilised and stored at 4° C. for a maximum of 1 month. Root diffusate agar plugs were made by melting 1.25% agar in ddH2O, cooling to 50° C. before mixing with 4 parts of root diffusate. The agar was then allowed to solidify at room temperature. 100 uNLP pre-treated M. incognita or G. pallida J2s were added by pipette to the centre of the plate. J2s which moved out of the ‘dead zone’ after 3 hours were counted and their location (+/−) scored. The distribution of J2s were used to create a chemotaxis index for each plate, which formed one replicate, a total of 10 replicates where completed for each uNLP treatment.

[4] = test system: Meloidogyne incognita infective stage juveniles (J2s); test: Chemosensory (chemotaxis) assay towards root exudate, M. incognita J2s; conditions: M. incognita J2s, 100 μM uNLP, 24 h; mean+/-SEM
Description: as §1, §4

Globodera pallida J2s [5] = test: Tomato invasion assay, G. pallida J2s; conditions: G. pallida J2s, 100 μM uNLP, 24 h; tomato seedlings
Description: as §1, §3

Globodera pallida J2s [6] = test: Serotonin-induced stylet thrusting assay, G. pallida J2s; conditions: 100 μM uNLP, 24 h, 2 mM serotonin
Description: as §1, §2

Sequence: AAENFDENNDIN [Mi-NLP-18d, predicted unamidated NLP of Meloidogyne incognita]
- rate of serotonergic-induced stylet thrusting compared with controls [1]: 147.7%+/−16.05
- host invasion compared to controls [2]: 34.21%+/−12

Sequence: AFDLFTGPGFTGMD [Gp-NLP-15h, predicted unamidated NLP of Globodera pallida]
- chemotaxis index (Cl) towards root exudate [3]: −0.06784+/−0.1415

Sequence: AFDRLDNSFMLL [Mi-NLP-8d, predicted unamidated NLP of Meloidogyne incognita]
- host invasion compared to controls [2]: 29.31%+/−12.57

Sequence: AFDRLDVSPFDFDAMT [Mi-NLP-8a, predicted unamidated NLP of Meloidogyne incognita]
- rate of serotonergic-induced stylet thrusting compared with controls [1]: 126.1%+/−9.278
- chemotaxis index (Cl) towards root exudate [4]: 0.018+/−0.3438

Sequence: AFDSFAGNGFTGFD [Mi-NLP-15f, predicted unamidated NLP of Meloidogyne incognita]
- rate of serotonergic-induced stylet thrusting compared with controls [1]: 75.18%+/−9.199
- chemotaxis index (Cl) towards root exudate [4]: −0.05+/−0.3547

Sequence: AFDSFGTPGFTGFD [Mi-NLP-15a, predicted unamidated NLP of Meloidogyne incognita]
- chemotaxis index (Cl) towards root exudate [4]: −0.01067+/−0.06497

Sequence: AFDSFTGPGFTGMD [Gp-NLP-15g, predicted unamidated NLP of Globodera pallida]
- chemotaxis index (Cl) towards root exudate [3]: −0.2208 +/−0.1568

Sequence: AGARAFQRPDFDDASYEL [Mi-NLP-9a, predicted unamidated NLP of Meloidogyne incognita]
- host invasion compared to controls [2]: 45.59%+/−22.97

Sequence: AGGRLFRMVDLPDGDDFVPEG [Gp-NLP-21e, predicted unamidated NLP of Globodera pallida]
- chemotaxis index (Cl) towards root exudate [3]: −0.3804+/−0.2762

Sequence: AGGRYFMRHFDDSPFAGWMA [Gp-NLP-21g, predicted unamidated NLP of Globodera pallida]
- host invasion relative to controls (Globodera pallida J2s [5]): 214.8%+/−30.31
- chemotaxis index (Cl) towards root exudate [3]: −0.01357+/−0.1854

Sequence: ALDILDGDDFTGFS [Gp-NLP-14e, predicted unamidated NLP of Globodera pallida]
- chemotaxis index (Cl) towards root exudate [3]: −0.0641+/−0.2329

Sequence: ALDILESDDFGGF [Gp-NLP-14a, predicted unamidated NLP of Globodera pallida]
- chemotaxis index (Cl) towards root exudate [3]: −0.3765+/−0.1039

Sequence: ALDLMEGDGFGGGFD [Mi-NLP-14b, predicted unamidated NLP of Meloidogyne incognita]
- chemotaxis index (Cl) towards root exudate [4]: −0.1155+/−0.1472

Sequence: ALDMLEGDDFIGMQ [Mi-NLP-14a, predicted unamidated NLP of Meloidogyne incognita]
- rate of serotonergic-induced stylet thrusting compared with controls [1]: 61.6%+/−7.86
- host invasion compared to controls [2]: 44.61%+/−12.25

Sequence: ALDMMEGDDFIGL [Mi-NLP-14c, predicted unamidated NLP of Meloidogyne incognita]
- rate of serotonergic-induced stylet thrusting compared with controls [1]: 134.7%+/−19.51
- host invasion compared to controls [2]: 20.96%+/−11.12

Sequence: FAPRQFAFA [Mi-NLP-18a, predicted unamidated NLP of Meloidogyne incognita]
- chemotaxis index (Cl) towards root exudate [4]: −0.1353+/−0.1129
- host invasion compared to controls [2]: 25.88%+/−8.695

Sequence: FNDDELSSLPFNFEYFPSLDTH [Mi-NLP-8b, predicted unamidated NLP of Meloidogyne incognita]
- host invasion compared to controls [2]: 61.38%+/−11.56

Sequence: GGARAFAKLEE [Mi-NLP-9c, predicted unamidated NLP of Meloidogyne incognita]
- rate of serotonergic-induced stylet thrusting compared with controls [1]: 143.2%+/−9.878

Sequence: GGARAFFGDADGPFNSASYWAP [Gp-NLP-21h, predicted unamidated NLP of Globodera pallida]
- chemotaxis index (Cl) towards root exudate [3]: −0.01564+/−0.08072
- serotonergic-induced stylet thrusting relative to control groups (Globodera pallida J2s [6]): 116.8%+/−4.876

Sequence: GGARAFNFFAPDE [Gp-NLP-21b, predicted unamidated NLP of Globodera pallida]
- host invasion relative to controls (Globodera pallida J2s [5]): 6.897%+/−3.855
- chemotaxis index (Cl) towards root exudate [3]: −0.117 +/−0.1936

Sequence: GGARAFNFFAPPDE [Gp-NLP-21a, predicted unamidated NLP of Globodera pallida]
- host invasion relative to controls (Globodera pallida J2s [5]): 178.9%+/−48.52

Sequence: GGARAFNGAEETLLNVANLA [Gp-NLP-21i, predicted unamidated NLP of Globodera pallida]
- chemotaxis index (Cl) towards root exudate [3]: −0.1733 +/−0.02667
- serotonergic-induced stylet thrusting relative to control groups (Globodera pallida J2s [6]): 117.7%+/−4.497

Sequence: GGARPFYGFFGGGEGTW [Mi-NLP-9e, predicted unamidated NLP of Meloidogyne incognita]
- host invasion compared to controls [2]: 48.68%+/−10.87

Sequence: GGARPFYGGGYMDGTW [Gp-NLP-21f, predicted unamidated NLP of Globodera pallida]
- chemotaxis index (Cl) towards root exudate [3]: 0.1456+/−0.1232

Sequence: GGARTFLVGE [Mi-NLP-9b, predicted unamidated NLP of Meloidogyne incognita]
- chemotaxis index (Cl) towards root exudate [4]: −0.07417+/−0.154

Sequence: GGTRAFNFFVSDALPSSYE [Gp-NLP-21c, predicted unamidated NLP of Globodera pallida]
- host invasion relative to controls (Globodera pallida J2s [5]): 14.07%+/−4.655

Sequence: GMRNFAFA [Mi-NLP-18b, predicted unamidated NLP of Meloidogyne incognita]
- rate of serotonergic-induced stylet thrusting compared with controls [1]: 146.6%+/−7.609
- host invasion compared to controls [2]: 47.81%+/−6.008

Sequence: SAFDSFVGRGFTGMD [Mi-NLP-15e, predicted unamidated NLP of Meloidogyne incognita]
- chemotaxis index (Cl) towards root exudate [4]: −0.01767+/−0.09428
- host invasion compared to controls [2]: 38.71%+/−5.963

Sequence: SFDSFTGSGFTGLD [Gp-NLP-15c, predicted unamidated NLP of Globodera pallida]
- chemotaxis index (Cl) towards root exudate [3]: −0.227+/−0.0776
- serotonergic-induced stylet thrusting relative to control groups (Globodera pallida J2s [6]): 56.07%+/−9.441

Sequence: SFDSFVGKGFTGMD [Mi-NLP-15c, predicted unamidated NLP of Meloidogyne incognita]
- chemotaxis index (Cl) towards root exudate [4]: −0.359+/−0.277

Sequence: SFDSLTGPGFTGLDT [Gp-NLP-15a, predicted unamidated NLP of Globodera pallida]
- chemotaxis index (Cl) towards root exudate [3]: −0.1451 +/−0.221

Sequence: SFGDYPFGSRTFAFA [Mi-NLP-18c, predicted unamidated NLP of Meloidogyne incognita]
- rate of serotonergic-induced stylet thrusting compared with controls [1]: 175.5%+/−20.72

Sequence: SGIQTFRDDYDEKQAGEL [Gp-NLP-21d, predicted unamidated NLP of Globodera pallida]
- host invasion relative to controls (Globodera pallida J2s [5]): 2.01%+/−1.545

Sequence: SSLASGRIGFRPA [Mi-NLP-2, predicted unamidated NLP of Meloidogyne incognita]
- rate of serotonergic-induced stylet thrusting compared with controls [1]: 164.4%+/−20.3

Sequence: SSQFGGENSFARFAFA [Mi-NLP-18e, predicted unamidated NLP of Meloidogyne incognita]
- host invasion compared to controls [2]: 46.49%+/−7.391
